Measurements: patent US20110166112A1, “METHOD FOR STIMULATING PLATELET PRODUCTION” (Eisai, Inc., priority 2009, published 2011)
“And” between values parts separate entries of the source, which are not always exact repeats. Equal values may be shown once.

System: subjects with chronic idiopathic thrombocytopenic purpura (ITP)
Assay: Phase 2 double-blind placebo-controlled dose-ranging 28-day study of E5501 tablets: platelet count response (responder rate)
Format: in vivo, human
Settings: for Responder, Yes / Responder, No: Day 28; for Subjects Who Maintained Responder Status, No / Subjects Who Maintained Responder Status, Yes: completer population; for Subjects Who Maintained Responder Status, Yes: Day 7 response maintained to Day 28; for subjects with increased platelet counts that met the criteria for positive response / response: day 28; for subjects with increased platelet counts that met the criteria for positive response: FAS
Procedure: This was a phase 2, multi-center, double-blind, randomized, placebo-controlled, dose-ranging, parallel group study of E5501 tablets, used in the treatment of subjects with chronic idiopathic thrombocytopenic purpura (ITP) refractory to or relapsed after at least one prior ITP therapy. Subjects who met all entry criteria were randomly assigned in a 3:3:3:3:1 ratio to one of the following five treatment groups dosed daily for 28 days: 1) E5501 2.5 mg; 2) E5501 5 mg; 3) E5501 10 mg; 4) E5501 20 mg; or 5) placebo (PBO). Each E5501 dosing group consisted of 15 subjects while the PBO group consisted of 5 subjects. All study subjects were evaluated weekly (days 7, 14, 21 and 28) for safety and efficacy while receiving study treatment, with a final assessment for safety and effectiveness performed 4 weeks after the last study dose (day 56) unless the subject entered the follow-on study. Platelet counts were also measured on day 3 and day 5.
The primary objective of this study was to assess platelet count response to E5501 on day 28. The response rate was defined as the proportion of subjects who were not on steroids with a screening visit B platelet count <30,000/mm^3 and who achieved a platelet count ≧50,000/mm^3, together with the proportion of subjects receiving steroids with a screening visit B platelet count ≧30,000/mm^3 but <50,000/mm^3 who achieved a platelet count ≧20,000/mm^3 above their screening visit B platelet count. Secondary objectives of the study included the evaluation of other markers of effectiveness, including changes in peripheral blood platelet count, the proportion of subjects who achieved a platelet count ≧50,000/mm^3 and ≧100,000/mm^3, and the proportion of subjects who achieved a doubling of their platelet count at screening visit B and the assessment of the safety and tolerability of E5501.
Primary efficacy endpoint. The primary endpoint in this study was E5501 responder rate on day 28. A responder is defined as a subject with screening visit B platelet count <30,000/mm^3 who achieves a platelet count ≧50,000/mm^3 or a subject receiving steroids with a screening visit B platelet count ≧30,000/mm^3 but <50,000/mm^3 who achieves a platelet count ≧20,000/mm^3 above their screening visit B platelet count.
The secondary endpoints included changes from screening visit B in peripheral blood platelet counts over time; the proportion of subjects who achieved a platelet count of ≧50,000/mm^3 or ≧100,000/mm^3 on day 28 and the proportion of subjects whose platelet count doubled compared to their platelet count at Screening Visit B.
The populations of interest were defined as follows: • The randomized population included all subjects who were randomized into the study. • The safety population included all randomized subjects who receive at least one dose of study drug and have at least one safety assessment. • The pharmacokinetic (PK) population included all subjects who provided blood sample for analysis of E5501. A subject was included in this population if the subject had at least one blood draw for PK assessment. • The full analysis set (FAS) included all subjects who provided adequate data to derive at least one efficacy assessment. […] The day 28 visit window was defined to be from day 25, to last dose day+1, inclusively; • Other major protocol violations that impacted the platelet endpoint evaluation. Results from Planned Analyses
Primary Efficacy Endpoint. The analysis of efficacy was performed both on the FAS population and the PP population at day 28 visit with LOCF and observed case (OC) approaches. The primary analysis population was the FAS. Fisher's exact test was used to examine the difference of response rates among each treatment pair. All p-values are nominal without adjustment for multiplicity.
Secondary Efficacy Endpoint. Analyses for secondary efficacy endpoints were performed by treatment group and by analysis visit using both LOCF and OC methods. […]

[1] = No Previous History of Splenectomy, 20 mg
[2] = No Previous History of Splenectomy, Total E5501
[3] = Number of Lines of Prior Therapy <3, 2.5 mg
[4] = Number of Lines of Prior Therapy <3, 5 mg
[5] = Number of Lines of Prior Therapy <3, 10 mg
[6] = Number of Lines of Prior Therapy <3, 20 mg
[7] = Number of Lines of Prior Therapy <3, Total E5501
[8] = Number of Lines of Prior Therapy ≧3, 2.5 mg
[9] = Number of Lines of Prior Therapy ≧3, 5 mg
[10] = Number of Lines of Prior Therapy ≧3, 10 mg
[11] = Number of Lines of Prior Therapy ≧3, 20 mg
[12] = Number of Lines of Prior Therapy ≧3, Total E5501
[13] = Per Protocol Population, 2.5 mg
[14] = Per Protocol Population, Total E5501
[15] = Previous History of Splenectomy, 2.5 mg
[16] = Previous History of Splenectomy, 5 mg
[17] = Previous History of Splenectomy, 10 mg
[18] = Previous History of Splenectomy, 20 mg
[19] = Previous History of Splenectomy, Total E5501

SMILES: O=C(Nc1nc(-c2cc(Cl)cs2)c(N2CCN(C3CCCCC3)CC2)s1)c1cnc(N2CCC(C(=O)O)CC2)c(Cl)c1 [E5501, 1-(3-chloro-5-{[4-(4-chlorothiophen-2-yl)-5-(4-cyclohexylpiperazin-1-yl)thiazol-2-yl]carbamoyl}pyridine-2-yl)piperidine-4-carboxylic acid]
- Responder, Yes (No Previous History of Splenectomy, 10 mg): 6 (54.5) n (%)
- Responder, No [1]: 1 (11.1) n (%)
- Responder, Yes [1]: 8 (88.9) n (%)
- Responder, No [2]: 20 (48.8) n (%)
- Responder, Yes [2]: 21 (51.2) n (%)
- Responder, No [3]: 3 (100.0) n (%)
- Responder, Yes [3]: 0 n (%)
- Responder, No [4]: 4 (44.4) n (%)
- Responder, Yes [4]: 5 (55.6) n (%)
- Responder, No [5]: 1 (25.0) n (%)
- Responder, Yes [5]: 3 (75.0) n (%)
- Responder, No [6]: 1 (14.3) n (%)
- Responder, Yes [6]: 6 (85.7) n (%)
- Responder, No [7]: 9 (39.1) n (%)
- Responder, Yes [7]: 14 (60.9) n (%)
- Responder, No [8]: 10 (83.3) n (%)
- Responder, Yes [8]: 2 (16.7) n (%)
- Responder, No [9]: 3 (50.0) n (%)
- Responder, Yes [9]: 3 (50.0) n (%)
- Responder, No [10]: 6 (60.0) n (%)
- Responder, Yes [10]: 4 (40.0) n (%)
- Responder, No [11]: 2 (25.0) n (%)
- Responder, Yes [11]: 6 (75.0) n (%)
- Responder, No [12]: 21 (58.3) n (%)
- Responder, Yes [12]: 15 (41.7) n (%)
- Responder, No (Other Site Pooled, 2.5 mg): 8 (88.9) n (%)
- Responder, Yes (Other Site Pooled, 2.5 mg): 1 (11.1) n (%)
- Responder, No (Other Site Pooled, 5 mg): 6 (60.0)2 n (%)
- Responder, Yes (Other Site Pooled, 5 mg): 4 (40.0) n (%)
- Responder, No (Other Site Pooled, 10 mg): 4 (57.1) n (%)
- Responder, Yes (Other Site Pooled, 10 mg): 3 (42.9) n (%)
- Responder, No (Other Site Pooled, 20 mg): 1 (16.7) n (%)
- Responder, Yes (Other Site Pooled, 20 mg): 5 (83.3) n (%)
- Responder, No (Other Site Pooled, Total E5501): 19 (59.4) n (%)
- Responder, Yes (Other Site Pooled, Total E5501): 13 (40.6) n (%)
- Responder, No [13]: 11 (84.6) n (%)
- Responder, Yes [13]: 2 (15.4) n (%)
- Responder, No (Per Protocol Population, 5 mg): 7 (53.8) n (%)
- Responder, Yes (Per Protocol Population, 5 mg): 6 (46.2) n (%)
- Responder, No (Per Protocol Population, 10 mg): 5 (41.7) n (%)
- Responder, Yes (Per Protocol Population, 10 mg): 7 (58.3) n (%)
- Responder, No (Per Protocol Population, 20 mg): 3 (25.0) n (%)
- Responder, Yes (Per Protocol Population, 20 mg): 9 (75.0) n (%)
- Responder, No [14]: 26 (52.0) n (%)
- Responder, Yes [14]: 24 (48.0) n (%)
- Responder, No [15]: 4 (80.0) n (%)
- Responder, Yes [15]: 1 (20.0) n (%)
- Responder, No [16]: 2 (50.0) n (%)
- Responder, Yes [16]: 2 (50.0) n (%)
- Responder, No [17]: 2 (66.7) n (%)
- Responder, Yes [17]: 1 (33.3) n (%)
- Responder, No [18]: 2 (33.3) n (%)
- Responder, Yes [18]: 4 (66.7) n (%)
- Responder, No [19]: 10 (55.6) n (%)
- Responder, Yes [19]: 8 (44.4) n (%)
- Responder, No (Site 132, 2.5 mg): 5 (83.3) n (%)
- Responder, Yes (Site 132, 2.5 mg): 1 (16.7) n (%)
- Responder, No (Site 132, 5 mg): 1 (20.0) n (%)
- Responder, Yes (Site 132, 5 mg): 4 (80.0) n (%)
- Responder, No (Site 132, 10 mg): 3 (42.9) n (%)
- Responder, Yes (Site 132, 10 mg): 4 (57.1) n (%)
- Responder, No (Site 132, 20 mg): 2 (22.2) n (%)
- Responder, Yes (Site 132, 20 mg): 7 (77.8) n (%)
- Responder, No (Site 132, Total E5501): 11 (40.7) n (%)
- Responder, Yes (Site 132, Total E5501): 16 (59.3) n (%)
- responder rate (by Day 7, 2.5 mg): 6.7%
- responder rate (by Day 7, 5 mg): 66.7%
- responder rate (by Day 7, 10 mg): 64%
- responder rate (by Day 7, 20 mg): 93.3% and 93%
- subjects who achieved an increase in platelet count by ≧50,000/mm^3 (by Day 7, 20 mg): Approximately 90%
- Subjects Who Maintained Responder Status, No (2.5 mg): 13 (100.0) n (%)
- Subjects Who Maintained Responder Status, No (5 mg): 10 (71.4) n (%)
- Subjects Who Maintained Responder Status, No (10 mg): 7 (58.3) n (%)
- Subjects Who Maintained Responder Status, No (20 mg): 3 (23.1) n (%)
- Subjects Who Maintained Responder Status, Yes (2.5 mg): 0 n (%)
- Subjects Who Maintained Responder Status, Yes (5 mg): 4 (28.6) n (%)
- Subjects Who Maintained Responder Status, Yes (10 mg): 5 (41.7) n (%)
- Subjects Who Maintained Responder Status, Yes (20 mg): 10 (76.9) n (%)
- Subjects Who Maintained Responder Status, Yes (Total E5501): 19 (36.5) n (%)
- Subjects Who Maintained Responder Status, No (Total E5501): 33 (63.5) n (%)
- subjects with increased platelet counts that met the criteria for positive response (2.5 mg): 13.3%
- subjects with increased platelet counts that met the criteria for positive response (5 mg): 53.3%
- subjects with increased platelet counts that met the criteria for positive response (10 mg): 50%
- subjects with increased platelet counts that met the criteria for positive response (20 mg): 80%
- response (other sites pooled, 5 mg): 40%
- response (site 132, 5 mg): 80%
- subjects who responded by day 7 (dose of ≧5 mg): 57.6%
- overall response rate (highest dose of E5501 tested): 80-93%
- reduction of response rates from day 7 to 28 days (lower E5501 dose groups): about 30%
- subjects treated with E5501 who responded by day 3 (of 13 subjects): One
- subjects treated with E5501 who responded by day 5 (of 19 subjects): 6 subjects
